Laboratory results taken from publication PMC5371550, “GABAB receptor attenuation of GABAA currents in neurons of the mammalian central nervous system” (Physiological Reports, 2017).

Columns and labels:
[1] = test system: T1, α-subunit containing GABAA receptor (GABAAR) from human amygdala; type: cell-based; conditions: antagonist against 50 μmol/L GABA; pH 7.4, room temperature
T1 construct: gene GABRA1

[2] = test system: T1, α-subunit containing GABAA receptor (GABAAR) from human amygdala; conditions: agonist; -70 mV, pH 7.4, room temperature

SMILES | IC50 [1] [µM] | EC50 [2] [µM]
CN1CCc2cc3c(cc2[C@H]1[C@@H]1OC(=O)c2c1ccc1c2OCO1)OCO3 [bicuculline] | 8 | –
NCc1cc(O)no1 [muscimol] | – | 45
